In patent US10165779B2, “Substituted pyrazolylpyrazole derivative and use of same as herbicide” (KYOYU AGRI CO., LTD., priority 2015, dated 2019):

Key:
Format in all cases: in vivo
[1] = tested on: Oryza sativa; assay: Paddy herbicidal activity test, phytotoxicity to transplanted rice; conditions: rice transplanted at 2.0 leaf stage, 30 days
Method: (§1) After treating for 30 days in a glass greenhouse at an average atmospheric temperature of 30° C., the herbicidal efficacy thereof was investigated. Evaluation of herbicidal efficacy was carried out by comparing growth inhibition rate (%) with an untreated group, while evaluation of phytotoxicity was carried out by comparing growth inhibition rate (%) with the state of a complete eradication group, and were evaluated at 11 levels indicated below. […] 2: 20% to less than 30% 3: 30% to less than 40% 4: 40% to less than 50% 5: 50% to less than 60% 6: 60% to less than 70% 7: 70% to less than 80% […]

[2] = tested on: Digitaria ciliaris; assay: Weed foliar treatment test (Test 3, 1.0 to 2.0 leaf stage); conditions: foliar spray at 1.0 to 2.0 leaf stage of Digitaria ciliaris, 3 weeks
Method: (§2) Soil was filled into a 1/6000 are pot followed by seeding with Digitaria ciliaris, Chenopodium album and Amaranthus retroflexus, covering with soil, and cultivating in a glass greenhouse at an average atmospheric temperature of 25° C.
(§3) Wettable powders of Target Compound (I) shown in Table 1 prepared in compliance with the preparation examples were diluted with water to the prescribed amount of chemical and uniformly sprayed onto the weeds using 150 liters of sprayed water per 10 are when Digitaria ciliaris had grown to the 1.0 to 2.0 leaf stage.
(§4) After treating for 3 weeks in a glass greenhouse at an average atmospheric temperature of 25° C., the herbicidal efficacy thereof was investigated.
(§5) Evaluation of herbicidal efficacy was carried out in the same manner as the above-mentioned Test Example 1.

[3] = tested on: Amaranthus retroflexus; assay: as above; conditions: foliar spray at 1.0 to 2.0 leaf stage of Digitaria ciliaris, 3 weeks
Method: as §2, §3, §4, §5

[4] = tested on: Chenopodium album; assay: as above; conditions: foliar spray at 1.0 to 2.0 leaf stage of Digitaria ciliaris, 3 weeks
Method: as §2, §3, §4, §5

[5] = tested on: Digitaria ciliaris; assay: Farming soil treatment test; conditions: soil surface spray prior to weed growth, 30 days
Method: (§6) Field soil was filled into a 1/6000 are pot followed by seeding with Digitaria cilaris, Chenopodium album and Amaranthus retroflexus and covering with soil.
(§7) Wettable powders of compounds of formula (I) shown in Table 1 prepared in compliance with the preparation examples were diluted. with water to the prescribed amount of chemical and uniformly sprayed onto each soil surface layer using 100 liters of sprayed water per 10 are prior to weed growth following seeding.
(§8) After treating for 30 days in a glass greenhouse at an average atmospheric temperature of 30° C., the herbicidal efficacy thereof was investigated.
as §5

[6] = tested on: Amaranthus retroflexus; assay: Farming soil treatment test; conditions: soil surface spray prior to weed growth, 30 days
Method: as §6, §7, §8, §5

[7] = tested on: Chenopodium album; assay: Farming soil treatment test; conditions: soil surface spray prior to weed growth, 30 days
Method: as §6, §7, §8, §5

[8] = tested on: Echinochloa crus-galli; assay: Paddy herbicidal activity test; conditions: irrigated paddy pot, treated at 3.5 leaf stage of Echinochloa crus-galli, 30 days
Method: as §1

[9] = tested on: Scirpus juncoides; assay: Paddy herbicidal activity test; conditions: irrigated paddy pot, 30 days
Method: as §1

[10] = tested on: Monochoria vaginalis; assay: Paddy herbicidal activity test; conditions: irrigated paddy pot, 30 days
Method: as §1

[11] = tested on: Digitaria ciliaris; assay: Weed foliar treatment test (Test 4, 4.0 to 5.0 leaf stage); conditions: 10 g a.i./10a; foliar spray at 4.0 to 5.0 leaf stage of Digitaria ciliaris (plant height 10 cm to 15 cm); 20 days
Method: (§9) Field soil was filled into a 1/4500 are pot followed by seeding with Digitaria ciliaris and Galinsoga parviflora, covering with soil and cultivating in a glass greenhouse at an average atmospheric temperature of 25° C.
as §3, with “100” for “150”, “4.0” for “1.0”, “5.0” for “2.0”, “stage (plant height: 10 cm to 15 cm).” for “stage.”
(§10) After treating for 20 days in a glass greenhouse at an average atmospheric temperature of 25° C., the herbicidal efficacy thereof was investigated.
as §5

[12] = tested on: Galinsoga parviflora; assay: as above; conditions: 10 g a.i./10a; foliar spray at 4.0 to 5.0 leaf stage of Digitaria ciliaris; 20 days
Method: as §9
as §3, with “100” for “150”, “4.0” for “1.0”, “5.0” for “2.0”, “stage (plant height: 10 cm to 15 cm).” for “stage.”
as §10, §5

SMILES	phytotoxicity Oryza sativa ([1]; 1g a.i./10a)	phytotoxicity Oryza sativa ([1]; 5g a.i./10a)	herbicidal efficacy Digitaria ciliaris ([2]; 5g a.i./10a)	herbicidal efficacy Digitaria ciliaris ([2]; 10g a.i./10a)	herbicidal efficacy Amaranthus retroflexus ([3]; 5g a.i./10a)	herbicidal efficacy Amaranthus retroflexus ([3]; 10g a.i./10a)	herbicidal efficacy Chenopodium album ([4]; 5g a.i./10a)	herbicidal efficacy Chenopodium album ([4]; 10g a.i./10a)	herbicidal efficacy Digitaria ciliaris ([5]; 5g a.i./10a)	herbicidal efficacy Digitaria ciliaris ([5]; 10g a.i./10a)	herbicidal efficacy Amaranthus retroflexus ([6]; 5g a.i./10a)	herbicidal efficacy Amaranthus retroflexus ([6]; 10g a.i./10a)	herbicidal efficacy Chenopodium album ([7]; 5g a.i./10a)	herbicidal efficacy Chenopodium album ([7]; 10g a.i./10a)	herbicidal efficacy Echinochloa crus-galli ([8]; 1g a.i./10a)	herbicidal efficacy Echinochloa crus-galli ([8]; 5g a.i./10a)	herbicidal efficacy Scirpus juncoides ([9]; 1g a.i./10a)	herbicidal efficacy Scirpus juncoides ([9]; 5g a.i./10a)	herbicidal efficacy Monochoria vaginalis ([10]; 1g a.i./10a)	herbicidal efficacy Monochoria vaginalis ([10]; 5g a.i./10a)	other results
COC(=O)N(C(=O)OC)c1c(C#N)cnn1-c1nn2c(c1Br)CCCC2 [Compound 4]	0 (0 (exponent): 0% to less than 10% (growth inhibition rate))	1 (1: 10% to less than 20%)	10 (10: 100%)	10 (10: 100%)	10 (10: 100%)	10 (10: 100%)	10 (10: 100%)	10 (10: 100%)	10 (10: 100%)	10 (10: 100%)	10 (10: 100%)	10 (10: 100%)	9 (9: 90% to less than 100%)	10 (10: 100%)	10 (10: 100%)	10 (10: 100%)	9 (9: 90% to less than 100%)	10 (10: 100%)	10 (10: 100%)	10 (10: 100%)	herbicidal efficacy Digitaria ciliaris [11]: 10 (10: 100%); herbicidal efficacy Galinsoga parviflora [12]: 10 (10: 100%)
C=CCOC(=O)N(C(=O)OCC=C)c1c(C#N)cnn1-c1nn2c(c1Cl)CCCC2 [Compound 14]	1 (1: 10% to less than 20%)	1 (1: 10% to less than 20%)	10 (10: 100%)	10 (10: 100%)	10 (10: 100%)	10 (10: 100%)	10 (10: 100%)	10 (10: 100%)	10 (10: 100%)	10 (10: 100%)	10 (10: 100%)	10 (10: 100%)	9 (9: 90% to less than 100%)	10 (10: 100%)	10 (10: 100%)	10 (10: 100%)	9 (9: 90% to less than 100%)	10 (10: 100%)	10 (10: 100%)	10 (10: 100%)	herbicidal efficacy Digitaria ciliaris [11]: 10 (10: 100%); herbicidal efficacy Galinsoga parviflora [12]: 10 (10: 100%)
